In ChEMBL document CHEMBL3865786, “Scaffold-hopping of bioactive flavonoids: Discovery of aryl-pyridopyrimidinones as potent anticancer agents that inhibit catalytic role of topoisomerase IIα” (Eur J Med Chem, 2016):
Calls of active or inactive are those of the source. No cut-off for these calls is given here.

What was measured:
[1] = Cytotoxicity against African green monkey Vero cells assessed as reduction in cell viability after 48 hrs by MTT assay; assay type: toxicity, cell-based; conditions: chlorocebus sabaeus; for CC50 at 48 h: Vero cells, read-out: LC50; for Activity: vero, 48 h
[2] = tested on: HEK293; test: Potency index, ratio of etoposide LC50 to compound LC50 for anticlonogenic activity in HEK293 cells; assay type: functional, Homo sapiens
[3] = Cytotoxicity against human A549 cells assessed as reduction in cell viability after 48 hrs by MTT assay; assay type: functional, cell-based; conditions: A549, 48 h
[4] = tested on: HEK293; test: (§1) Anticlonogenic activity against HEK293 cells assessed as inhibition of colony formation incubated for 48 hrs measured after 6 days by crystal violet staining based assay; assay type: functional; conditions: Homo sapiens
[5] = as §1; assay type: functional; conditions: Homo sapiens, read-out: LC50 (the source's name)
[6] = Cytotoxicity against human HeLa cells assessed as reduction in cell viability after 48 hrs by MTT assay; assay type: functional, cell-based
[7] = Cytotoxicity against human H357 cells assessed as reduction in cell viability after 48 hrs by MTT assay; assay type: functional, cell-based; conditions: H357, 48 h
[8] = tested on: HEK293; test: (§2) Cytotoxicity against HEK293 cells assessed as reduction in cell viability after 48 hrs by MTT assay; assay type: functional; conditions: Homo sapiens
[9] = as §2; assay type: functional; conditions: Homo sapiens, HEK293, 48 h; read-out: LC50 (the source's name)
[10] = Cytotoxicity against human HCT116 cells assessed as reduction in cell viability after 48 hrs by MTT assay; assay type: functional, cell-based; conditions: HCT-116, 48 h
[11] = Cytotoxicity against human MCF7 cells assessed as reduction in cell viability after 48 hrs by MTT assay; assay type: functional, cell-based; conditions: MCF7, 48 h
[12] = target: DNA topoisomerase 2-alpha (Homo sapiens) (UniProt P11388); test: Inhibition of human DNA topoisomerase 2alpha-mediated decatenation of kinetoplast DNA at 100 uM after 30 mins by agarose gel electrophoresis
[13] = species: Bos taurus; test: Binding affinity to calf thymus DNA assessed as DNA intercalation by measuring conformational changes at 100 uM after 2 hrs by CD spectroscopic analysis
[14] = Binding affinity to DNA (unknown origin) assessed as hypochromism after 1 hr by UV-Vis absorption spectrophotometric analysis

DNA topoisomerase 2-alpha (Homo sapiens), sequence (P11388 whole entry): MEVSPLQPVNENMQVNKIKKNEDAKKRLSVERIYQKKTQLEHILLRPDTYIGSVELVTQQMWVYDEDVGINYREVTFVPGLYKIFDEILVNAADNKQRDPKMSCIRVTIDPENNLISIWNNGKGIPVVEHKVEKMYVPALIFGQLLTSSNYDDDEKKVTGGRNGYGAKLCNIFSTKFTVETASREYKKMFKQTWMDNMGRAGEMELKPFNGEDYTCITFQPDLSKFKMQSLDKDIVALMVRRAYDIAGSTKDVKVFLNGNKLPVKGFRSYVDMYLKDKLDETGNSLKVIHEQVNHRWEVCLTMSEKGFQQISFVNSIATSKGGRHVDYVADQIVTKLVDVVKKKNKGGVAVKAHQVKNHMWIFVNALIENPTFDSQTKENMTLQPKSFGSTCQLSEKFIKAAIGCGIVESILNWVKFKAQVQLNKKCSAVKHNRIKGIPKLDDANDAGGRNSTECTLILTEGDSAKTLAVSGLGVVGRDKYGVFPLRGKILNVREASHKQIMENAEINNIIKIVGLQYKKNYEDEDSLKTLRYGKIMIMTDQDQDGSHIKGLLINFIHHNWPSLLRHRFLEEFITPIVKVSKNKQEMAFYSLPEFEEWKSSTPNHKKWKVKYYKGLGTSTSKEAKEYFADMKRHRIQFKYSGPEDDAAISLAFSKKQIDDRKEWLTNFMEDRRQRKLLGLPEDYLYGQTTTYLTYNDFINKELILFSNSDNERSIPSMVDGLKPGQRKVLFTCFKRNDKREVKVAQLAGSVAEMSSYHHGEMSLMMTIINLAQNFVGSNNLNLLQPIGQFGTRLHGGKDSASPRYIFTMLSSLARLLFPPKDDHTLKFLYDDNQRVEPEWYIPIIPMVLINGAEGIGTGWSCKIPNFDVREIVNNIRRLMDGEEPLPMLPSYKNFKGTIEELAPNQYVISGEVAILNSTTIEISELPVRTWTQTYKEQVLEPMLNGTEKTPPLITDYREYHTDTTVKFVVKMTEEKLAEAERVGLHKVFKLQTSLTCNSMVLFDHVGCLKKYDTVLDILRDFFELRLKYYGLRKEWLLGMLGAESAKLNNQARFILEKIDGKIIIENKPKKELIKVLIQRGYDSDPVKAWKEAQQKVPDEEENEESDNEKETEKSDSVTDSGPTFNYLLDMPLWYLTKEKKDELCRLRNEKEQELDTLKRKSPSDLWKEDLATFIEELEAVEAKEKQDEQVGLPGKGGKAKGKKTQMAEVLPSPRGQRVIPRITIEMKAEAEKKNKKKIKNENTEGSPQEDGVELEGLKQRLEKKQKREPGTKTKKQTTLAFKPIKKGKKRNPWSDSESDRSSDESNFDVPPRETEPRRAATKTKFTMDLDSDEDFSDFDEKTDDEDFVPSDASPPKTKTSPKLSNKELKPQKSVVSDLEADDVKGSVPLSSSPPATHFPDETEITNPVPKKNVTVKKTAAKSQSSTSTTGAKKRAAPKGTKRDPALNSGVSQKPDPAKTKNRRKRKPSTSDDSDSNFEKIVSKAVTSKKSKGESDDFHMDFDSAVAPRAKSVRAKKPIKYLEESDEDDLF

## O=c1c(-c2cc(O)cc(O)c2)cnc2ccccn12
[1]
  CC50 at 48 h: 50 µM
  Activity: Dose-dependent effect
[2]
  RatioLC50: 5 - 10
[3]
  IC50: 2.8 µM
[4]
  inhibition: Dose-dependent effect
[5]
  CC50: 2.4 µM
[6]
  IC50: 1.5 µM
[7]
  IC50: 3 µM
[8]
  Activity: Dose-dependent effect
[9]
  CC50: 2 µM
[10]
  IC50: 3 µM
[11]
  IC50: 2 µM
[12]
  Topoisomerase 2-alpha inhibition (active/inactive): Active

## COc1cc(-c2cnc3ccccn3c2=O)cc(OC)c1OC
[1]
  CC50 at 48 h: 40 µM
  Activity: Dose-dependent effect
[2]
  RatioLC50: 5 - 10
[3]
  IC50: 2.1 µM
[4]
  inhibition: Dose-dependent effect
[5]
  CC50: 1.8 µM
[6]
  IC50: 2.8 µM
[7]
  IC50: 3 µM
[8]
  Activity: Dose-dependent effect
[9]
  CC50: 3 µM
[10]
  IC50: 3.2 µM
[11]
  IC50: 3 µM
[12]
  Topoisomerase 2-alpha inhibition (active/inactive): Active

## COc1cccc(-c2cnc3ccccn3c2=O)c1
[1]
  CC50 at 48 h: 46 µM
[9]
  CC50: 9 µM
[12]
  Topoisomerase 2-alpha inhibition (active/inactive): Active

## O=c1c(-c2cccc(O)c2)cnc2ccccn12
[1]
  CC50 at 48 h: 52 µM
[9]
  CC50: 6 µM
[12]
  Topoisomerase 2-alpha inhibition (active/inactive): Active

## CC[n+]1c(-c2ccccc2)c2cc(N)ccc2c2ccc(N)cc21
[13]
  Activity: Active

## COc1cc(-c2coc3ccccc3c2=O)cc(OC)c1OC
[1]
  CC50 at 48 h: 50 µM
[9]
  CC50: 10 µM
[12]
  Topoisomerase 2-alpha inhibition (active/inactive): Active

## O=c1cc(-c2ccc3c(c2)OCO3)oc2ccccc12
[1]
  CC50 at 48 h: 48 µM
[9]
  CC50: 8 µM
[12]
  Topoisomerase 2-alpha inhibition (active/inactive): Active

## COc1ccc(-c2cc(=O)n3ccccc3n2)cc1OC
[1]
  CC50 at 48 h: 50 µM
[9]
  CC50: 17 µM
[12]
  Topoisomerase 2-alpha inhibition (active/inactive): Active

## O=c1cc(-c2ccc(O)c(O)c2)nc2ccccn12
[1]
  CC50 at 48 h: 32 µM
[9]
  CC50: 13 µM
[12]
  Topoisomerase 2-alpha inhibition (active/inactive): Active

## COc1cc(-c2cc(=O)c3ccccc3o2)cc(OC)c1OC
[1]
  CC50 at 48 h: 52 µM
[9]
  CC50: 12 µM
[12]
  Topoisomerase 2-alpha inhibition (active/inactive): Active

## COc1ccc(-c2coc3ccccc3c2=O)cc1
[1]
  CC50 at 48 h: 52 µM
[9]
  CC50: 12 µM

## O=c1c(-c2ccc(O)c(O)c2)cnc2ccccn12
[1]
  CC50 at 48 h: 38 µM
[9]
  CC50: 9 µM
[12]
  Topoisomerase 2-alpha inhibition (active/inactive): Active

## COc1cc(-c2cc(=O)n3ccccc3n2)cc(OC)c1OC
[14]
  Activity: Active
[1]
  CC50 at 48 h: 46 µM
[9]
  CC50: 9 µM
[12]
  Topoisomerase 2-alpha inhibition (active/inactive): Active
